The source of these data is publication PMC9078235 (RSC Advances, 2018).

SMILES strings stand for the structures.

In this test the target is Thrombin (≥1000 NIH U mg^−1 protein) prepared from human plasma (Homo sapiens, UniProt P00734). Put plainly: chromogenic thrombin activation assay, […] nm. The format is biochemical.

Regarding `COc1cc(/C=C/C(=O)Nc2nc3ccccc3s2)cc(OC)c1OC` [Q8, (E)-N-(Benzo[d]thiazol-2-yl)-3-(3,4,5-trimethoxyphenyl)acrylamide], the EC50 (as a rule, the concentration at which the effect is half-maximal) worked out at 232 µM.

For `CC(=O)Oc1ccc(/C=C/C(=O)Nc2nc3ccccc3s2)cc1` [Q2, (E)-4-(3-(Benzo[d]thiazol-2-ylamino)-3-oxoprop-1-en-1-yl)phenyl acetate], the 50% effective concentration (EC50) stood at 136 µM.

The molecule `O=S(=O)(O)c1cc(O)ccc1O` [etamsylate, reference compound] displayed an EC50 of 127 µM.
